Consider 4 molecules from patent publication US20170071944A1, “MODULATORS OF TOLL-LIKE RECEPTORS FOR THE TREATMENT OF HIV” (Gilead Sciences, Inc., priority 2015, published 2017).

The subject of test [1] is serum cytokines and chemokines associated with TLR8 activation. Description: Induction of cytokines and chemokines in Rhesus macaques (serum, Luminex). The test is classed as in vivo. The protocol:
The TLR8 modulator of Example 65 was formulated in 2% ethanol, 40% polyethylene glycol 300, and 58% 0.01 N hydrochloric acid. Oral solutions of formulations were prepared by dissolving a sufficient amount of the compound in the 2% ethanol, 40% polyethylene glycol 300, and 58% 0.01 N hydrochloric acid vehicle to arrive at 0.5, 1.5, or 5 mg/ml of Example 65. Rhesus macaques were dosed orally with 1.2 to 2 mls/kg to achieve dose levels of 1, 3, 6, or 10 mg/kg Example 65. Blood samples were collected at 2, 4, 8, 12, 24 and 48 hours postdose (FIG. 5) and allowed to clot under ambient conditions prior to centrifugation to obtain serum. The indicated cytokines and chemokines were quantified in serum with a multiplexed Luminex® assay following the manufacturer's instructions (Life Technologies). […] At 10 and 6 mg/kg, IL-12, IL-1RA and MCP-1 peaked near 10 ng/ml and IL-6 peaked at 1 ng/ml.

In test [2] the test system is HIV-specific polyfunctional CD8 T cells. Description: Induced HIV-specific polyfunctional CD8+ T cells in PBMC cultures from HIV-1 infected subjects on cART. As to conditions: for Median HIV-specific polyfunctional CD8 T cells (% proliferating CD8+ cells double positive for IFN-γ and TNF-α): 5 subjects, vehicle 0.73% (Example 15 group), 0.13% (Example 98 group). The class given is cell-based, human.

Test [3] has as its system HIV-1 expression in PBMC cultures from HIV-1 infected subjects on cART. Description: Induced HIV-1 expression in PBMC cultures from HIV-1 infected subjects on cART (HIV-1 RNA in culture supernatant, COBAS TaqMan). The test is classed as cell-based, human. As to conditions: for Fold HIV-1 Activation, Geometric Mean with ≧2-Fold-Activation / Fold HIV-1 Activation, Range with ≧2-Fold-Activation: N = 5 subjects. As for the experimental part:
In some experiments, IL-15, the TLR8 modulating compound of Example 15 or the combination of IL-15 and Example 15 were used at the indicated concentrations (Table 4). The cultures were maintained in the presence of antivirals (elvitegravir and efavirenz at 100 nM each) to prevent viral spread and amplification in order to measure the quantity of virus produced (latency reversal) by the TLR8 modulating compounds. At the end of the incubation period, cell-free culture supernatants were harvested and HIV-1 RNA levels were quantified by the COBAS® AmpliPrep/COBAS®TaqMan HIV-1 Test, v2.0 (Roche).
In each table, fold-activation is calculated as a ratio of HIV-1 RNA copies per ml of cell culture supernatants from TLR8 agonist treated samples and DMSO treated controls. Geometric mean fold-activation from three independent incubation samples for each condition of each subject's PBMCs.
To assess if the latency reversal induced by TLR8 agonism could further potentiate latency reversal by a separate mechanisms, we treated cells as described above with IL-15, Example 15, or a combination of IL-15 and Example 15 (Table 4).

Where [4] appears, read: Example 15 1000 nM and/or IL-15 1 nM, subjects 205-210.

Where “and” joins values, the source holds several entries; their conditions need not be identical. Equal entries are not always repeated.

As for `CCCC[C@](C)(CNC(C)=O)Nc1nc(N)nc2cc(Cl)cnc12` [Example 65], in test [1] (oral, 1, 3, 6, or 10 mg/kg), the “Induction of cytokines associated with TLR8 activation, including IL-12, IL-6, IL-1RA and MCP-1” value is on record as “induced in a dose-dependent manner”; the “Time of peak cytokine concentrations post-dose” value is 2 h. In test [1] (oral, 10 and 6 mg/kg), the “Serum IL-1RA peak” value was approximately 10 ng/mL, the “Serum IL-6 peak” value was 1 ng/mL, the “Serum IL-12 peak” value was approximately 10 ng/mL and the “Serum MCP-1 peak” value was approximately 10 ng/mL.
`CCCCC(C)(CO)Nc1nc(N)nc2cc(F)cnc12` (stereo not drawn) [Example 98]: the “Patients in whom increases were seen” value in test [2] (100 nM) and in test [2] (1000 nM) was 4 of 5 throughout. The results for the “Median HIV-specific polyfunctional CD8 T cells (% proliferating CD8+ cells double positive for IFN-γ and TNF-α)” value in test [2] (100 nM with HIV peptide pool) and in test [2] (1000 nM with HIV peptide pool) were 0.93% and 0.92%, respectively. Further, the “Increase of median HIV-specific polyfunctional CD8 T cells” value in test [2] (1000 nM combined with the HIV specific peptide pool, p<0.05) is 7.1 fold.
As for `CCC[C@@H](CO)Nc1nc(N)nc2cc(F)c(F)cc12` [Example 119, (S)-2-((2-amino-6,7-difluoroquinazolin-4-yl)amino)pentan-1-ol, reference compound], the “Fold HIV-1 Activation” value is 3.6 fold and 4.9 fold and 0.4 fold in test [3] (156 nM, 4 days, individual subjects 151-155, vs DMSO); 3.4 fold and 4.1 fold and 4.8 fold and 0.3 fold and 0.5 fold in test [3] (625 nM, 4 days, individual subjects 151-155, vs DMSO); 4.1 fold and 4.2 fold and 3.2 fold and 5.2 fold and 2.2 fold in test [3] (2,500 nM, 4 days, individual subjects 151-155, vs DMSO). Further, the “Fold HIV-1 Activation, Geometric Mean with ≧2-Fold-Activation” value in test [3] (156 nM) is 4.2 fold; in test [3] (625 nM) it was 4.1 fold; in test [3] (2,500 nM), 3.6 fold; in test [3] (156, 625, or 2500 nM), 4.1 fold. In addition, the “Fold HIV-1 Activation, Range with ≧2-Fold-Activation” value was 3.6-4.9 fold in test [3] (156 nM); 3.4-4.8 fold in test [3] (625 nM); 2.2-5.2 fold in test [3] (2,500 nM); 2.2-5.2 fold in test [3] (156, 625, or 2500 nM). The “N with ≧2-Fold-Activation” value in test [3] (156 nM, subjects 151-155) was 2 of 3; in test [3] (625 nM, subjects 151-155) it was 3 of 5; in test [3] (2,500 nM, subjects 151-155) it was 5 of 5; in test [3] (156, 625, or 2500 nM, subjects 151-155) it was 5 out of 5 and 5 of 5. Also, the “N with ≧2-Fold-Activation (%)” value in test [3] (156 nM, subjects 151-155) was “(67) %”; in test [3] (625 nM, subjects 151-155) it was “(60) %”; in test [3] (2,500 nM, subjects 151-155), “(100) %”.
For “IL-15: interleukin IL-15, used at 1 nM as a separate latency reversal mechanism”, in test [3] (Example 15 1000 nM and/or IL-15 1 nM, N = 6 subjects), the “Fold HIV-1 Activation, Geometric Mean” value worked out at 2.9 fold. In addition, the “Fold HIV-1 Activation” value in test [3] (Example 15 1000 nM and/or IL-15 1 nM, individual subjects 205-210, vs DMSO) was 2.6 fold and 3.3 fold and 4.4 fold and 6.3 fold and 1.4 fold and 1.6 fold. Moreover, in test [3] (setting [4]), the “N with ≧2-Fold-Activation” value was 4 of 6 and the “N with ≧2-Fold-Activation (%)” value stood at 66%.
